Experimental data from patent publication US20200405715A1, “COMPOSITIONS AND METHODS FOR TREATING CANCER AND INFLAMMATORY DISEASES” (University of Pittsburgh - Of the Commonwealth System of …, priority 2016, published 2020).

What was measured:
[1] = system: Nedd8-cullin; experiment: Cullin neddylation, protein immunoblotting in HepG2 cells; type: cell-based
Source text: Cells were then collected and assayed for protein immunoblotting. […]
DCN1 protein is believed to harbor a UBC12 binding pocket. Scott et al, Cell 757:1671-84 (2014). […] Scott et al. (2014). The N-terminal acetylation acts as an avidity enhancer within an interconnected multiprotein complex. Science, 554:674-8 (2011). Specifically, n-terminal of UBC12 is acetylated (FIG. 1A, yellow) and completely buried inside the hydrophobic pocket within DCN1 (4gao.PDB, FIG. 1B). Small molecule inhibition of the DCN1 hydrophobic pocket would presumably disrupt UBC12 binding, and thus disrupt Neddylation of Cullin protein. Potential ligands were assessed that might fit the DCN1 domain cavities (FIG. 1B). 3-(pentylamino)-5-phenylcyclohex-2-en-1-one was selected for future testing (FIG. 1C). […] MLN4924 was used as a positive control.

[2] = system: HepG2 cells; experiment: Cell morphology under white field microscopy; type: cell-based; settings: 10 μM, time dependent (FIG. 6C)
Method: HepG2 cells were treated with 3-(decylamino)-5-phenylcyclohex-2-en-1-one at 10 μM for various times. At each time point, cells were analyzed by BrdU uptake and 7-AAD staining, G0, G1, S, G2/M phase cells were then quantitated and graphed. […] Cells were then observed under white field microscopy.

[3] = system: HepG2 cells; experiment: Wound-healing assay; type: cell-based; settings: 36 h (FIG. 5C)
Method: HepG2 cells were treated with 3-(decylamino)-5-phenylcyclohex-2-en-1-one for 36 h with various concentrations. Cells were then analyzed by BrdU uptake and 7-AAD staining, G0, G1, S, G2/M phase cells were then quantitated and graphed. […] Confluent monolayers of HepG2 cells were injured and cellular migration into the wound was determined under vehicle or 3-(decylamino)-5-phenylcyclohex-2-en-1-one treated condition. 36 h later cells were then observed under white field microscopy and recovery of cells to wound heal was quantified and graphed (right).

[4] = system: DSS induced colonic inflammation; experiment: DSS induced colitis model; type: in vivo, C57BL6 mice; settings: DSS in water
Method: FIGS. 12A-12D show DCN1 inhibitors reduce DSS induced colonic inflammation, specifically the following experimental results C57BL6 mice were fed with water ad lib containing 3% dextran sulfate sodium (DSS) for six days. DCN1 inhibitors were administered into drinking water at 10 mg/kg/d, starting at day 1. […] The data represent n=4 mice/group, *P<0.05 versus CON.
Also tested were 3-(decylamino)-5-phenylcyclohex-2-en-1-one (BC1558), 3-(dibenzylamino)-5-phenylcyclohex-2-en-1-one (BC1634) and 3-((4-phenoxybenzyl)amino)-5-phenylcyclohex-2-en-1-one (BC1653) in a mouse colitis model to confirm its anti-inflammatory activity. Briefly, C57BL6 mice were fed with water containing 3.5% […] and colonic length was measured. DSS produced a significant decrease in colon length in mice, consistent with colonic inflammation (FIG. 12A-B). […] Colonic tissue cytokine levels were further analyzed.

[5] = system: PBMC cells; experiment: LPS-induced TNF release from PBMC cells (ELISA); type: cell-based; settings: various concentrations for 2 h, then LPS (10 ng/ml) for 12 h (FIG. 10A)
Method: Cells were then treated with LPS (10 ng/ml) for additional 2 h. Media were then collected and TNF concentration was determined by ELISA. […] Lung tissue was collected and assayed for immunoblotting. Culture media was collected and assayed for cytokines.
Since SCF machinery is believed to be essential for NF-kB activation, it was investigated whether the DCN1 inhibitors could affect inflammation. 3-(decylamino)-5-phenylcyclohex-2-en-1-one was first tested in PBMCs cells. Briefly, PBMC cells were treated with 3-(decylamino)-5-phenylcyclohex-2-en-1-one at various concentrations for 2 h before exposed to LPS (10 ng/ml) for 12 h.

[6] = system: Clvd-caspase3 and Clvd-PARP; experiment: Apoptosis markers, protein immunoblotting in HepG2 cells; type: cell-based
[7] = system: SCF substrates p27, NRF2 and CDT1; experiment: SCF substrates, protein immunoblotting in HepG2 cells; type: cell-based; settings: 10 μM, various times (FIG. 6A)
[8] = system: HepG2 cells; experiment: HepG2 cell proliferation (CellTiter-Glo Luminescent Cell Viability Assay); type: cell-based; settings: 96 h
Method: Cell proliferation were then measured by CellTiter-Glo® Luminescent Cell Viability Assay (n=3).
4KHepG2 cells were seeded in 96 well plates for overnight. Compounds listed in Table 3 were then added to each well at various concentrations. 96 h later, cell proliferation was measured by ATP production using a CellTiter-Glo® Luminescent Cell Viability Assay (Promega).
3-(pentylamino)-5-phenylcyclohex-2-en-1-one was modified by adding a different sidechain. These novel compounds were tested further in an in vitro proliferation assay using ATPLite Cell Proliferation kit. […] Others lost activity in reducing Cullin Neddylation and inhibiting cell proliferation (FIG. 3C-D).

[9] = system: HepG2 cells; experiment: Mitotic spindle immunostaining (α-tubulin, DAPI); type: cell-based; settings: 1 uM, 24 h (FIG. 7B)
Method: Cells were then washed with PBS and fixed with 4% paraformaldehyde for 20 min. Cells were co-immunostained for either α-tubulin. Cells were counterstained with DAPI to visualize the nucleus.
The integrity of the centrosome and mitotic spindles after 3-(decylamino)-5-phenylcyclohex-2-en-1-one treatment was examined. HepG2 cells were stained with antibody to α-tubulin to visualize the mitotic spindle (FIG. 7A-B). […] The circular prophase configurations were observed (FIG. 7B, top panel). One classic phenotype of the circular chromosome configuration is circular figures arranged on monopolar spindles around large centrosomes. No spindles assembly in metaphase was observed (FIG. 7B, lower panel).

For `CCCCCCCCCCNC1=CC(=O)CC(c2ccccc2)C1` (stereo not drawn) [BC1558, 3-(decylamino)-5-phenylcyclohex-2-en-1-one], the “neddylation of several cullin isoforms” value ([1]; 10 μM, time dependent (FIG. 6A)) was “drastically reduced”, the “neddylation of several cullin isoforms” value ([1]; 48 h, dose dependent (FIG. 5A)) was “drastically reduced” and the “activity compared with MLN4924” value ([1]; 48 h, various concentration (FIG. 4)) was “comparable activity”. For the same compound, the “reducing Cullin Neddylation” value ([1]; 48 h, various concentrations (FIG. 3C)) was “exhibited activity”, the cell morphology [2] was “accumulation of rounded, apoptotic hepG2 cells” and the hepG2 cells migration [3] was “showed inhibition”. For the same compound, the “colon length compared vehicle” value ([4]; compounds in drinking water at 10 mg/kg/d (FIG. 12A-B)) was “significant increase”, the “IL1β and IL6 levels in colonic tissue compared to vehicle” value ([4]; compounds in drinking water at 10 mg/kg/d (FIG. 12C-D)) was “large reduction” and the “LPS-induced TNF release from PBMC cells” value [5] was “potently inhibited”. The “apoptosis markers Clvd-caspase3 and Clvd-PARP” value ([6]; 10 μM, various times (FIG. 6A)) was “effectively increased”, the “apoptosis markers Clvd-caspase3 and Clvd-PARP” value ([6]; 48 h, various concentrations (FIG. 5A)) was “effectively increased” and the “SCF substrates p27, NRF2 and CDT1” value [7] was “increased”. The inhibiting cell proliferation ([8]; various concentrations (FIG. 3D)) was “exhibited activity”, the IC50 ([8]; Homo sapiens, ATP production, n=3, read-out: IC50Proliferation) was < 1000 nM and the “integrity of the centrosome and mitotic spindles” value [9] was “Abnormal cells with several representative mitotic abnormalities were also detected”.
